Assay results taken from patent US6586216B2 (Purdue Research Foundation, priority 1997, dated 2003).
Where two headings read alike, the source gives them in different places.

Columns and labels:
[1] = molecular target: T1, glutamine PRPP amidotransferase K305Q mutant enzyme (Bacillus subtilis, UniProt P00497, K316Q); format: biochemical
T1 construct: Enzymes of the B. subtilis class are synthesized with an NH2 terminal propeptide and an Fe—S center; made in house; host or cells: E. coli strain TX158 (purF) with plasmid pBsF/K305Q
Method: (§1) Enzyme activity was assayed by measuring the initial rate of formation of the product glutamate. […] Incubation was at 37° C. for 6 min. […] Reactions were quenched in a boiling water bath for 2 min, and glutamate was determined by the glutamate dehydrogenase method.
(§2) Inhibition by nucleotides was determined by the standard assay to which varied concentrations of nucleotide were added. Synergistic inhibition was determined by varying the concentration of one nucleotide in the presence of a fixed concentration of a second nucleotide. Relative activity (see FIG. 1) refers to the enzyme activity at a given concentration of the varied nucleotide relative to that in the absence of the varied nucleotide. I0.5 values were calculated from plots of relative activity versus varied nucleotide concentration.
(§3) These modified forms of amidotransferase were analyzed to determine the impact of the mutations on end-product inhibition and enzymatic activity. Inhibition by nucleotides was determined as described in Example 1.

[2] = molecular target: T2, glutamine PRPP amidotransferase R307Q mutant enzyme (Bacillus subtilis, UniProt P00497, R318Q); format: biochemical
T2 construct: Enzymes of the B. subtilis class are synthesized with an NH2 terminal propeptide and an Fe—S center; made in house; host or cells: E. coli strain TX158 (purF) with plasmid pBsF/R307Q
Method: as §1, §2, §3

Row | SMILES | syn. ([1]; fixed GMP 0.50 mM) | syn. ([1]; fixed GMP 5.0 mM) | syn. ([2]; fixed GMP 0.50 mM) | syn. ([2]; fixed GMP 5.0 mM) | syn. ([1]; fixed ADP 0.5 mM) | syn. ([1]; fixed ADP 2.5 mM) | syn. ([2]; fixed ADP 0.5 mM) | syn. ([2]; fixed ADP 2.5 mM)
1 | Nc1ncnc2c1ncn2[C@@H]1O[C@H](COP(=O)(O)OP(=O)(O)O)[C@@H](O)[C@H]1O [ADP] | 2.6 | 97.0 | 12.0 | 156.0 |  |  |  | 
2 | Nc1nc2c(ncn2[C@@H]2O[C@H](COP(=O)(O)O)[C@@H](O)[C@H]2O)c(=O)[nH]1 [GMP] |  |  |  |  | 8.3 | 38.0 | 15.0 | 66.0
